PMC8249783, “A novel multikinase inhibitor SKLB‐YTH‐60 ameliorates inflammation and fibrosis in bleomycin‐induced lung fibrosis mouse models” (Cell Proliferation, 2021)

What was measured:
[1] = tested on: Human pulmonary fibroblasts (HPF); assay: Cell viability assay (CCK8); assay type: cell-based; settings: 24‐72 hours
Protocol: (§1) The cell viability of YTH‐60 and Nintedanib treatment was performed by MTT and CCK8 assay. Briefly, the exponentially growing cells were seeded in 96‐well (2‐5 × 10^3 cells·well^−1) and cultured for 24 hours. The cells were treated with different concentrations of YTH‐60 (0, 0.625, 1.25, 2.5, 5, 10 µmol·L^−1), after treatment for 24, 48 and 72 hours, respectively, a volume of 20 μL of 5 mg·mL^−1 MTT solution or 10 μL CCK‐8 solution was added to each well and incubation for 2‐4 hours at 37°C. Finally, the 96‐well plates were read on Multiskan FC microplate spectrophotometer at 570 or 450 nm wavelength.

[2] = tested on: MRC‐5 human embryo lung fibroblast; assay: Cell viability assay (CCK8); assay type: cell-based; settings: MRC‐5, 24‐72 hours
Protocol: as §1

[3] = tested on: NIH‐3T3 (mouse embryonic fibroblast); assay: Cell viability assay (CCK8); assay type: cell-based; settings: NIH‐3T3, 24‐72 hours
Protocol: as §1

LO2 cells = assay: Cytotoxicity in normal human liver cell line; assay type: cell-based; settings: 24 hours exposure
Protocol: as §1

A549 cells = assay: Cell viability assay (MTT); assay type: cell-based, human
Protocol: as §1

phosphorylation of FGFR1 = assay: Western blot of FGFR signalling in fibroblasts; assay type: cell-based; settings: 10 μmol·L^−1
Protocol: Samples of cells and mouse lung tissues were lysed in RIPA buffer with a protease and phosphatase inhibitors (Selleckchem). The protein concentrations in the cell lysate were measured by the Lowry method. Approximately 50 μg of total protein was separated by SDS‐PAGE and then transferred to polyvinylidene fluoride (PVDF) membranes (Amersham Bioscience). After the membranes incubation with the specific primary and secondary antibodies, the reactive bands were detected with enhanced chemiluminescent substrate to horseradish peroxidase.

[4] = tested on: TNF‐α, IFN‐γ, IL‐2, IL‐4, IL‐10 and IL‐17A; assay: Serum cytokines in BLM mice (Th1/Th2/Th17 Cytokine Kit); assay type: in vivo, C57BL/6 mice; settings: day 14
Protocol: Male C57BL/6 mice (8‐10 weeks old) were purchased from HFK Bioscience Co. Ltd. All animal experiments were permitted by the Institutional Animal Care and Treatment Committee of Sichuan University in China (New Permit Number: 20190524003). Lung fibrosis was induced using BLM treatment (2 mg·kg^−1). All C57BL/6 mice were divided into five groups (n = 10): a BLM + Nintedanib group (Nintedanib, 30 mg·kg^−1), a BLM + YTH‐60 group (YTH‐60, 15 mg·kg^−1 and 30 mg·kg^−1), a control group (Sham), and a bleomycin group (Vehicle). At the beginning, the mice were anaesthetized using 10% chloral hydrate, dissolved BLM with saline and administered intratracheally. To evaluate the preventive effect, the next day after BLM challenge, YTH‐60 and Nintedanib were administered intraperitoneally daily for 13 days (fibroproliferation) to the mice. All mice were sacrificed 24 hours after the last drug injection, the lungs and other organs were taken for the subsequent analysis. To test the therapeutic effect, after the 7th day of BLM treatment, mice were injected intraperitoneally with YTH‐60, Nintedanib and vehicle daily for 7 consecutive days (fibroproliferation).
IL‐2, IL‐4, IL‐10, IL‐17A, TNF‐α and IFN‐γ levels in mouse serum were determined using a mouse Th1/Th2/Th17 Cytokine Kit (BD Biosciences) according to the manufacturer's instructions. […]

## COc1cc(OC)c(Cl)c(-c2ccc3c(/C=C/c4ccc(N(C)C(=O)CN5CCN(C)CC5)cc4)n[nH]c3c2)c1Cl [YTH‐60, (E)‐N‐(4‐(2‐(6‐(2,6‐dichloro‐3,5‐dimethoxyphenyl)‐1H‐indazol‐3‐yl)vinyl)phenyl)‐N‐methyl‐2‐(4‐methylpiperazin‐1‐yl)acetamide]
[1]
  cell proliferation / viability (in words): inhibits cell proliferation in a time‐ and concentration‐dependent manner
[2]
  cell proliferation / viability (in words): inhibits cell proliferation in a time‐ and concentration‐dependent manner
[3]
  cell proliferation / viability (in words): inhibits cell proliferation in a time‐ and concentration‐dependent manner
LO2 cells
  cytotoxicity, viability of LO2 cells (in words): inhibited the viability of LO2 cells less than Nintedanib
A549 cells
  viability of A549 cells (in words): suppressed the viability of A549 cells
Phosphorylation of FGFR1
  phosphorylation of FGFR1 (in words): inhibited the phosphorylation of FGFR1
[4]
  inflammatory cytokines in serum (in words): reduced the expression level of these inflammatory cytokines
